What was measured:
[1] = system: human neonatal skin fibroblast cells (Cryo NHDF-Neo); assay: Antioxidant effect on oxidative damages induced by hydrogen peroxide (AlamarBlue viable cell ratio); format: cell-based; conditions: for antioxidant effect on hydrogen peroxide: conclusion in words
Experimental: (§1) For the evaluation of an antioxidant effect on hydrogen peroxide, human neonatal skin fibroblast cells (trade name: Cryo NHDF-Neo, manufactured by Sankyo Junyaku Co., Ltd.) were inoculated to a 24-well plate to have 1×10^5 cells per well. The cells were then cultured for four hours in a medium for cell culture (trade name: D-MEM (1 g/L glucose), manufactured by Wako Pure Chemical Industries) supplemented with 10% bovine fetal serum (herein below, referred to as a “standard medium”) in a 5% CO2 and saturated water vapor atmosphere at 37° C. (degrees Celsius). For the evaluation of an antioxidant effect on AAPH, antibiotics (penicillin, streptomycin, and fungizone) were supplemented to the standard medium and the cells were cultured for one day.
(§2) Subsequently, the culture medium was switched to a medium for cell culture (trade name: D-MEM (1 g/L glucose), manufactured by Wako Pure Chemicals Industries) supplemented with 0.5% bovine fetal serum (herein below, referred to as “low-serum medium”) to which 0.01% or 0.05% carnosine, or 0.1 μM (micro-molar) or 10 μM (micro-molar) D- or L-aspartic acid had been added, and the cells were cultured for two days under atmosphere of 5% CO2 and saturated moisture at 37° C. (degrees Celsius). For the experiment for the evaluation of oxidative damages on AAPH, the culture medium was switched to the medium for cell culture to which 5 ppm or 100 ppm carnosine, or 10 μM (micro-molar) D- or L-aspartic acid had been further added, and the cells were cultured for two days. The low-serum medium described above to which neither carnosine nor aspartic acid had been added was employed as a negative control.
(§3) After culturing for two days, 1 mM or 4 mM hydrogen peroxide, or 50 mM or 100 mM AAPH was added to the medium for evaluating an antioxidant effect, and the antioxidant effect was evaluated for carnosine or aspartic acid. The low-serum medium described above to which neither hydrogen peroxide nor AAPH had been added was employed as a control for evaluation of toxicity of an antioxidant when no oxidant was added.
(§4) Two hours after the addition of hydrogen peroxide or AAPH, AlarmarBlue (trade name: Biosource, manufactured by Biosource International Inc.) was added to have final concentration of 10%. Two to three hours later, according to the methods by Ahmed S. A. et al. (J. Immunol. Method., 170, 211-224 (1994)) and the instructions provided by the manufacturer, the fluorescent intensity of the supernatant was measured with an excitation wavelength of 544 nm, and an emission wavelength of 590 nm.

[2] = system: human neonatal skin fibroblast cells (Cryo NHDF-Neo); assay: Antioxidant effect on oxidative damages induced by AAPH (AlamarBlue viable cell ratio); format: cell-based; conditions: for antioxidant effect on AAPH: conclusion in words
Experimental: as §1, §2, §3, §4

[3] = 1 mM hydrogen peroxide, test substance 0.1 μM
[4] = 1 mM hydrogen peroxide, test substance 10 μM
[5] = 4 mM hydrogen peroxide, test substance 0.1 μM
[6] = 4 mM hydrogen peroxide, test substance 10 μM
[7] = without addition of an oxidant (toxicity control), test substance 0.1 μM
[8] = without addition of an oxidant (toxicity control), test substance 10 μM
[9] = 100 mM AAPH, test substance 10 μM
[10] = without addition of the oxidant (toxicity control), test substance 10 μM

Row | SMILES | ratio of viable cells [1, 3] [%] | ratio of viable cells [1, 4] [%] | ratio of viable cells [1, 5] [%] | ratio of viable cells [1, 6] [%] | antioxidant effect on hydrogen peroxide [1] | ratio of viable cells [1, 7] [%] | ratio of viable cells [1, 8] [%] | ratio of viable cells [2, 9] [%] | antioxidant effect on AAPH [2] | ratio of viable cells [2, 10] [%] | ratio of viable cells ([1]; 1 mM hydrogen peroxide, test substance 0.01%) [%] | ratio of viable cells ([1]; 1 mM hydrogen peroxide, test substance 0.05%) [%] | ratio of viable cells ([1]; 4 mM hydrogen peroxide, test substance 0.01%) [%] | ratio of viable cells ([1]; 4 mM hydrogen peroxide, test substance 0.05%) [%] | ratio of viable cells ([1]; without addition of an oxidant (toxicity control), test substance 0.01%) [%] | ratio of viable cells ([1]; without addition of an oxidant (toxicity control), test substance 0.05%) [%] | ratio of viable cells ([2]; 100 mM AAPH, test substance 5 ppm) [%] | ratio of viable cells ([2]; 100 mM AAPH, test substance 100 ppm) [%] | ratio of viable cells ([2]; without addition of an oxidant (toxicity control), test substance 5 ppm) [%] | ratio of viable cells ([2]; without addition of an oxidant (toxicity control), test substance 100 ppm) [%]
1 | N[C@H](CC(=O)O)C(=O)O [D-aspartic acid] | 62 | 63 | 29 | 34 | concentration-dependent antioxidant effect | 86 | 97 | 96 | more potent antioxidant effect on AAPH compared to L-aspartic acid | 102 |  |  |  |  |  |  |  |  |  | 
2 | N[C@@H](CC(=O)O)C(=O)O [L-aspartic acid] | 62 | 62 | 33 | 32 | not observed | 88 | 97 | 69 | antioxidant effect on AAPH only | 80 |  |  |  |  |  |  |  |  |  | 
3 | NCCC(=O)N[C@@H](Cc1cnc[nH]1)C(=O)O [carnosine, reference compound] |  |  |  |  | confirmed |  |  |  | confirmed |  | 51 | 53 | 21 | 45 | 100 | 97 | 60 | 85 | 93 | 103

Reference: US8962684B2, “Antioxidant composition” (Shiseido Company, Ltd., priority 2009, dated 2015)
